Experimental findings from ChEMBL document CHEMBL1152049, “Dual metalloprotease inhibitors.v. Utilization of bicyclic azepinonethiazolidines and azepinonetetrahydrothiazines in constrained peptidomimetics of mercaptoacyl dipeptides” (Bioorg Med Chem Lett, 1995) are described below.

In assay [1] the target is T1, Angiotensin-converting enzyme (Rattus norvegicus, UniProt P47820).
T1 sequence (P47820 whole entry): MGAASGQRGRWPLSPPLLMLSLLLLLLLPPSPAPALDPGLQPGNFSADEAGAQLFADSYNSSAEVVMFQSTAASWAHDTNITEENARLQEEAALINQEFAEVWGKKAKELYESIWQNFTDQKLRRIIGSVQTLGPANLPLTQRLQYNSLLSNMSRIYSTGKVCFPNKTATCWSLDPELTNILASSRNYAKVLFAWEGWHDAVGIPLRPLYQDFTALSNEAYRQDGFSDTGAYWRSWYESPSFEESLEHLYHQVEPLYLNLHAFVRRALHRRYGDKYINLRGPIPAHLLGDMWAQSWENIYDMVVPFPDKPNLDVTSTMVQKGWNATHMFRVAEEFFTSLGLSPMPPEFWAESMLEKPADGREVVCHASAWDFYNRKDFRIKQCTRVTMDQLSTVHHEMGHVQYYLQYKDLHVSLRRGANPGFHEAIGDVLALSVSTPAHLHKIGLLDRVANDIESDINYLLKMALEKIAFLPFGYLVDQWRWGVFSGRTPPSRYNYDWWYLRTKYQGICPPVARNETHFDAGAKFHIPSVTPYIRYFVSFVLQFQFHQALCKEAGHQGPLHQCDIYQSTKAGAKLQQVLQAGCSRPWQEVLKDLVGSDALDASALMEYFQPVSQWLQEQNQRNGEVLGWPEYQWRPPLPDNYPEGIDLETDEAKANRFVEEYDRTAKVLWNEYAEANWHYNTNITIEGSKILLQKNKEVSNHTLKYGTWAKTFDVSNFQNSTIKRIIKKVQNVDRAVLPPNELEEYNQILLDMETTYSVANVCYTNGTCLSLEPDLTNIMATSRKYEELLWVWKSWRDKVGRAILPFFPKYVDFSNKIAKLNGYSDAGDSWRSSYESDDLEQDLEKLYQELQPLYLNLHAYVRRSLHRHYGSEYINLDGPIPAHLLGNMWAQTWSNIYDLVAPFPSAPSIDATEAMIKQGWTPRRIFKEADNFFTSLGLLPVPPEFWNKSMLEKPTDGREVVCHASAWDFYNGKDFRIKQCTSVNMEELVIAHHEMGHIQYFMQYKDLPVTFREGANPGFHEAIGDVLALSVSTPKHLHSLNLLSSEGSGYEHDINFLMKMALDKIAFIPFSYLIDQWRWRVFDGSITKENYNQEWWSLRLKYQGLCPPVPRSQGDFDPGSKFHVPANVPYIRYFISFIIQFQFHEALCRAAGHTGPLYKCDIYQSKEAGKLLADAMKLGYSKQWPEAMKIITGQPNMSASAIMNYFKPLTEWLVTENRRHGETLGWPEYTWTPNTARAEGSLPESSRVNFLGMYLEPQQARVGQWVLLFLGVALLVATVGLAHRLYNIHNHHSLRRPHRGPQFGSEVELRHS
Kind of assay: In vitro inhibitory activity against angiotensin converting enzyme (ACE). To be noted: read-out: I50.

Assay [2] deals with T2, Neprilysin (Rattus norvegicus, UniProt P07861).
T2 sequence (P07861 whole entry): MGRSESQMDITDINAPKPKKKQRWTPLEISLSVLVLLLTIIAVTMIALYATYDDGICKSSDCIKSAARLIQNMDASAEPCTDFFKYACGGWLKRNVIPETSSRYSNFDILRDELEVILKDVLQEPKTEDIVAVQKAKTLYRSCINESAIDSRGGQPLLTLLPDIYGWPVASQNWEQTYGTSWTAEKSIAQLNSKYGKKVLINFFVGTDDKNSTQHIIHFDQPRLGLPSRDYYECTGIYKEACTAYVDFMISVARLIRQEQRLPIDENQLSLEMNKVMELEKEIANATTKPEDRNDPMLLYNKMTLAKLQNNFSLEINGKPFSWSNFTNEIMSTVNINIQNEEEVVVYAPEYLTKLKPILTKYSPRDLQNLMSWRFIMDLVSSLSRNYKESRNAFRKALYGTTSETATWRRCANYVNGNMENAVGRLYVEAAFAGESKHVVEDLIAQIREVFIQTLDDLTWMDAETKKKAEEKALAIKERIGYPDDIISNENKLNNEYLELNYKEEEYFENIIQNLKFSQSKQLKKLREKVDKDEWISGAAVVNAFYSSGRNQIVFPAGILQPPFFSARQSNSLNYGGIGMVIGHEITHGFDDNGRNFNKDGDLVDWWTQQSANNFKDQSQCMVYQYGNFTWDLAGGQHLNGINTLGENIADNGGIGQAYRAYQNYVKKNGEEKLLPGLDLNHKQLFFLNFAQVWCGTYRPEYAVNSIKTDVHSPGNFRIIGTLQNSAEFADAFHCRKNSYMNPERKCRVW
The experiment in a line: In vitro inhibitory activity against neutral endopeptidase (NEP). The conditions noted are these: read-out: I50.

The species entered for assay [3] is Rattus norvegicus. The experiment in a line: Dose required to effect 50% inhibition of the AI induced pressor response in normotensive rat. In kind it is functional.

As for `O=C(O)[C@H]1CCS[C@@H]2CCC[C@H](NC(=O)[C@@H](S)Cc3ccccc3)C(=O)N12`, the IC50 in assay [1] was determined as 205 nM; in assay [2], 937 nM.
For `O=C(N[C@H]1CCC[C@@H]2SCC[C@@H](C(=O)O)N2C1=O)[C@@H](S)Cc1ccccc1` the same measures were 11.6 nM and 133 nM.
For `O=C(N[C@H]1CCC[C@@H]2SC[C@@H](C(=O)O)N2C1=O)[C@@H](S)Cc1ccccc1`, in that order: 11.5 nM and 2820 nM.
What is called ED50 is the dose at which the effect has come halfway, by size or by number of responders. Lower therefore signals an effect at a small dose. For `O=C(N[C@H]1CCC[C@H]2SC[C@@H](C(=O)O)N2C1=O)[C@@H](CS)Cc1ccccc1`, the IC50 in assay [1] came to 5.5 nM; in assay [2], 1.1 nM. Moreover, the 50% effective dose (ED50) in assay [3] was 0.8 µmol/kg.
For `O=C(N[C@H]1CCC[C@H]2SC[C@@H](C(=O)O)N2C1=O)[C@@H](S)Cc1ccccc1` the same measures were 1.6 nM, 11.5 nM and 0.07 µmol/kg.
As for `O=C(N[C@H]1CCC[C@H]2SCC[C@@H](C(=O)O)N2C1=O)[C@@H](S)Cc1ccccc1`, the IC50 in assay [1] is 25 nM; in assay [2] it was 42 nM.
